Data as given in patent US6512003B2, “Synthetic spiroketal pyranes as potent anti-cancer agents and use” (Parker Hughes Institute, priority 1998, dated 2003).

How the values were obtained:
[1] = tested on: human BT-20 breast cancer cells; assay: Apoptosis of breast cancer cells by transmission electron microscopy; type: cell-based; details: BT-20 cells, FIG. 6
Description: (§1) The effects of spiroketal pyrans on the survival of human breast cancer cells were examined in vitro. Cells were incubated at 37° C. for the indicated time periods with the title compounds. At the end of the incubation, cells were washed twice with PBS and fixed in 2% paraformaldehyde and examined by microscopy.

[2] = tested on: human breast cancer cells; assay: Confocal laser scanning microscopy of microtubules (alpha-tubulin immunofluorescence) and mitotic index; type: cell-based; design: microtubule organization and cell morphology: dose or concentration left out as unconfirmed; details: for microtubule organization and cell morphology: confocal microscopy, FIG. 7
Description: as §1
The effects of SPIKET-P1 on human breast cancer cells was also examined using confocal laser scanning microscopy^14. After fixing, the cells were permeabilized and non-specific binding sites were blocked with 2.5% BSA in PBS containing 0.1% Triton X-100 for 30 minutes. Tubulin expression was examined by immunofluorescence using a monoclonal antibody against α-tubulin (Sigma Chemical Co, St. Louis, Mo.) at a dilution of 1:1000 and an lanti-mouse IgG conjugated to FITC. Cells were washed in PBS and counterstained with toto-3 (Molecular Probes Inc., Eugene, Oreg.) for 10 minutes at a dilution of 1:1000. Cells were washed again with PBS and the coverslips were mounted with Vectashield (Vector Labs, Burlingame, Calif.) and viewed with a confocal microscope (Bio-Rad MRC 1024) mounted in a Nikon Labhophot upright microscope.
Digital images were saved on a Jaz disk and processed with Adobe Photoshop software (Adobe Systems, Mountain View, Calif.).
Vehicle-treated control cells are adherent with a well organized microtubule cytoskeleton, seen in the control (FIG. 7A) in green. […] Additionally, membrane blebbing and nuclear fragmentation was observed. Large vacuoles were present within treated cells. SPIKET-P-1 also affected the mitotic index, 2.25% of control cells were in mitosis whereas 0.0% of treated cells were in mitosis (23/1024 vs 0/1000, respectively).

[3] = tested on: tubulin; details: cited from earlier work

For OC1CC(CCOCc2ccccc2)OC2(C1)CC(O)CC(CCOCc1ccccc1)O2 (stereo not shown) [NP-25, 1,13-dibenzyloxy-5,9-dihydroxy-spiroketal], the induction of apoptosis [1] was “induce apoptosis in human breast cancer cells”.
For OC[C@H]1CCCC2(CCC[C@H](CO)O2)O1 [SPIKET-P1, [(2R,8R)-8-(hydroxymethyl)-1,7-dioxaspiro[5,5]undec-2-yl]methan-1-ol], the induction of apoptosis [1] was “induce apoptosis in human breast cancer cells”, the “microtubule organization and cell morphology” value [2] was “destruction of the microtubule organization, membrane blebbing, and nuclear fragmentation consistent with apoptosis” and the “microtubule organization and cell morphology” value ([2]; listed as SPA-1) was “fewer, less organized microtubules”. The “mitotic index (cells in mitosis)” value ([2]; treated cells 0/1000, control cells 2.25% (23/1024)) was 0.0%.
For c1ccc(COC[C@H]2CCCC3(CCC[C@H](COCc4ccccc4)O3)O2)cc1 [SPIKET-P1-P, Benzyl-protected SPIKET-P1], the induction of apoptosis [1] was “induce apoptosis in human breast cancer cells”.
For Spongistatin, the “inhibition of binding of vinc alkaloids / colchicin to tubulin” value [3] is listed as “inhibit the binding of vinc alkaloids (but not colchicin) to tubulin”.
